Laboratory results from patent publication US10906929B2, “Phosphoramidate nucleoside derivatives as anticancer agents” (NuCana plc, priority 2016, dated 2021).

Assays:
[1] = system: HL-60 Promyelocytic leukaemia; experiment: In vitro viability assay, CellTiterGlo; assay type: cell-based; conditions: HL-60, CellTiterGlo, 72 h
Outline: (§1)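 Cells were treated for ~72 h with a 9-point, 3.16-fold dilution series, 198 μM to 19.9 nM final, in 0.5% DMSO final, in duplicate. Viability was read by CellTiterGlo luminescence.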

[2] = system: KG-1 Acute myelogenous leukaemia; experiment: In vitro viability assay, CellTiterGlo; assay type: cell-based; conditions: KG-1, CellTiterGlo, 72 h
Outline: as §1

[3] = system: RL Non-Hodgkin's lymphoma; experiment: In vitro viability assay, CellTiterGlo; assay type: cell-based; conditions: CellTiterGlo, 72 h
Outline: as §1

[4] = system: Z-138 Mantle cell lymphoma; experiment: In vitro viability assay, CellTiterGlo; assay type: cell-based; conditions: Z-138, CellTiterGlo, 72 h
Outline: as §1

[5] = system: MCF-7 Mammary epithelial adenocarcinoma; experiment: In vitro viability assay, CellTiterGlo; assay type: cell-based, human; conditions: MCF-7, CellTiterGlo, 72 h
Experimental: In vitro viability assay was performed to assess the effects of compounds on cell viability in selected cell lines over 72 h using the CellTiterGlo (CTG, Promega-G7573) assay. The tests were performed in duplicates with treatment of compounds at 9 points, 3.16 folds titration in 96 well plates over ˜72 h. The compound starting concentrations were […]. Cell viability assay using CellTiterGlo in 96-well plate were performed. Compounds were dissolved to 40 mM with thawed 100% DMSO. Compounds were serially diluted at 3.16-fold in thawed DMSO, and warmed to 37° C. before being dissolved in media (2 μl+200 μl). After compounds were dissolved in media, media containing compounds were warmed to 37° C. in incubator and then compounds in media were added to cell plates (50 μl+50 μl) in duplicates. The compounds' final concentrations were from 198 μM to 19.9 nM. Solubility of all compounds was checked and recorded again, then the plates were transferred to CO2 tissue culture incubator immediately and incubated for 3 days. DMSO final concentration is 0.5%.

[6] = system: leukaemic stem cell compartment (Lin-/CD34+/CD38-/CD123+) within the KG1a cell line; experiment: Immunophenotypic identification of the leukaemic stem cell compartment; assay type: cell-based; conditions: 72 h, LSC phenotype as percentage of all viable cells left, Control: 4%
Experimental: A further comparative analysis of the toxicity of compounds in the KG1a cell line over an extended dose range was carried out, and the relative effect assessed of the compounds on the leukaemic stem cell compartment within the KG1a cell line, across the entire dose range. Thus, experimental tests were performed on certain compounds of the present invention to assess their ability to target cancer stem cells in a leukaemic cell line. The acute myeloid leukaemia (AML) cell line, KG1a, was employed to assess the relative effect of compounds on the stem cell compartment. The KG1a cell line was selected because it manifests a minor stem cell-like compartment with a distinct immunophenotype (Lin^−/CD34^+/CD38^−/CD123^+).
Cells of the KG1a cell line were maintained in RPMI medium (Invitrogen, Paisley, UK) supplemented with 100 units/ml penicillin, 100 μg/ml streptomycin and 20% foetal calf serum. Cells were subsequently aliquoted (10^5 cells/100 μl) into 96-well plates and were incubated at 37° C. in a humidified 5% carbon dioxide atmosphere for 72 h in the presence of nucleoside analogues and their respective phosphoramidates at concentrations that were experimentally determined for each series of compounds. In addition, control cultures were carried out to which no drug was added. Cells were subsequently harvested by centrifugation and were analyzed by flow cytometry using the Annexin V assay.
KG1a cells were cultured for 72 h in the presence of a wide range of concentrations of each compound assayed. Cells were then harvested and labelled with a cocktail of anti-lineage antibodies (PE-cy7), anti-CD34 (FITC), anti-CD38 (PE) and anti-CD123 (PERCP cy5). The sub-population expressing a leukaemic stem cell (LSC) phenotype were subsequently identified and were expressed as a percentage of all viable cells left in the culture. […]

[7] = system: L1210 cells infected with Mycoplasma hyorhinis (HYOR); experiment: Cytostatic activity in mycoplasma-infected cells; assay type: cell-based, mouse
From the text: Tumor cell cultures were infected with M. hyorhinis (ATCC 17981) and after two or more passages (to avoid bias by the initial inoculum) successful infection was confirmed using the MycoAlert™ mycoplasma detection kit (Lonza, Basel, Switzerland). Although this assay is only semi-quantitative, a maximal infection was observed 3 to 4 days after subcultivation of the mycoplasma-exposed cells. Chronically infected tumor cell lines are further referred to as Cell line.Hyor. All tumor cell cultures were maintained in Dulbecco's modified Eagle's medium (DMEM) (Invitrogen) supplemented with 10% fetal bovine serum (Biochrom AG, Berlin, Germany), 10 mm HEPES, and 1 mm sodium pyruvate (Invitrogen). Cells were grown at 37° C. in a humidified incubator with a gas phase containing 5% CO2.
The cytostatic activity of the test compounds was examined in mycoplasma-infected and uninfected cancer cell lines. When assaying the effect of M. hyorhinis infection, monolayer MCF7 and MCF7.Hyor cells were seeded in 48-well microtiter plates (Nunc™, Roskilde, Denmark) at 10,000 cells/well (Corning Inc., Corning, N.Y.) […]. After 24 h, the cells were exposed to different concentrations of test compound and allowed to proliferate for 72 h (to ensure sufficient cell proliferation and mycoplasma growth) after which the cells were trypsinized and counted using a Coulter counter (Analis, Suarlée, Belgium). Suspension cells (L1210, L1210.Hyor, FM3A, and FM3A.Hyor) were seeded in 96-well microtiter plates (Nunc) at 60,000 cells/well in the presence of different concentrations of test compound. The cells were allowed to proliferate for 48 h and then counted using a Coulter counter. The 50% inhibitory concentration (IC50) was defined as the compound concentration required to reduce cell proliferation by 50%.

[8] = Homo sapiens, read-out: EC50 (μM) Ab

Nc1nc(Cl)nc2c1ncn2[C@H]1C[C@H](O)[C@@H](CO)O1 [Cladribine, cladribine, reference compound]
Top Inhibition (%) [1]: 85%
EC50 [1, 8]: < 0.019 µM
EC50 [2, 8]: 0.17 µM
Top Inhibition (%) [2]: 93.5%
Top Inhibition (%) [3]: 94.7%
EC50 [3, 8]: < 0.019 µM
EC50 [4, 8]: < 0.019 µM
Top Inhibition (%) [4]: 99.7%
EC50 ([5]; Homo sapiens, MCF7, read-out: EC50 (μM) Ab): > 198 µM
Top Inhibition (%) [5]: 36.3%
Stem cell % [6]: 6%
Loss of potency ([7]; L1210/HYOR versus L1210): 8-fold
IC50 ([7]; Mus musculus, L1210, 48 h, read-out: IC50 L1210/HYOR): 3000 nM
